Assay [1] deals with ethanol self-administration in rats. The conditions noted are these: icv administration; cited from earlier work.
Assay [2] deals with T1, recombinant human NPY Y2 receptors (Homo sapiens, UniProt P49146).
T1 construct: expressed in transfected cells; host or cells: CHO-C4 cells (membrane preparation)
T1 sequence (P49146 1-381): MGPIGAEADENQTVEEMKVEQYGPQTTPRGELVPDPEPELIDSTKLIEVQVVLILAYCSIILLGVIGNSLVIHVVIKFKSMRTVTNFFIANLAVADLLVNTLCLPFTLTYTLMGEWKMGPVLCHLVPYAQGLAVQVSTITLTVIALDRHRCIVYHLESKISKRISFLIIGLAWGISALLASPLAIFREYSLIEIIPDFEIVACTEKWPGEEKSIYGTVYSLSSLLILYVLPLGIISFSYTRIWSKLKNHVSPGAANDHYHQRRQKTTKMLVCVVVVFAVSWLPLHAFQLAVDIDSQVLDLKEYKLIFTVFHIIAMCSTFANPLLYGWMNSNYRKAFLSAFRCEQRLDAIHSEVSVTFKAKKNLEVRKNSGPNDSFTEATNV
Briefly: Scintillation proximity [35S]GTPγS binding assay (inhibition of 0.5 nM NPY-stimulated [35S]GTPγS binding). The class given is biochemical. Particulars: 10 μM compound, CHO-C4 membranes, read-out: [%] inhibiton at 10 μM. The method, then: Preparation of Membranes: CHO—C4 cells expressing recombinant human NPY Y2 receptors were used to prepare membranes for the GTPγS assay. Cells were grown to 80-95% confluency on 15-cm (225 cm^2) tissue culture plates. After aspiration of the culture medium, cells were washed twice with 18 ml ice-cold phosphate-buffered saline (PBS), scraped off and suspended in 3 ml ice-cold PBS in pre-cooled centrifuge tubes. The dishes were rinsed with 2 ml ice-cold PBS per dish and the washings were combined with the PBS cell suspension from above. Cells pooled from 5-7 dishes were centrifuged for 5 min at 10,000 rpm (12,000 g) in a Sorvall RC5B centrifuge using an SS34 rotor at 4° C. The cell pellet was resuspended in 5 ml ice-cold buffer (20 mM HEPES, 10 mM EDTA; pH 7.4) by vortexing (2-5 sec), homogenized using a Polytron (step 4 for 20-30 sec), and ice-cold buffer added to 25 ml. The suspension was centrifuged again for 20 min at 18,000 rpm (39,000 g) at 4° C. and the pellet resuspended in 5 ml ice-cold buffer (20 mM HEPES, 0.1 mM EDTA; pH 7.4) by vortexing (2-5 sec), homogenized with a Polytron (step 4 for 10 sec), and ice-cold buffer added to 25 ml. The suspension was centrifuged a third time for 20 min at 18,000 rpm (39,000 g) at 4° C. The pellet was resuspend in 1 ml ice-cold buffer (20 mM Hepes, 0.1 mM EDTA; pH 7.4) by vortexing (5-8 sec). Two to five resuspended pellets were combined and homogenized using a Polytron (step 4 for 15-25 sec). A small aliquot (20-50 μl) was removed for protein determination by the Coomassie Plus Protein Assay Reagent (Pierce) using BSA as standard. The membrane suspension was aliquoted in pre-cooled (on dry ice) Eppendorf tubes (0.25-1 ml/tube affording approximately 0.5-2 mg of membrane protein/tube). The pellets were frozen and stored at −80° C.
Scintillation proximity [^35S]GTPγS binding assay: Frozen membranes from CHO—C4 cells expressing recombinant human NPY Y2 receptors (2 mg for four 96-well plates) were thawed on ice. Thawed membranes were pipetted into 10 ml of assay buffer (20 mM. HEPES, 10 mM MgCl2, 100 mM NaCl, pH 7.4) and homogenized briefly using a Polytron. The final assay mixture was prepared in 96-well microtiter plates (Isoplate Wallac, Perkin Elmer). The composition of the assay mixtures in a final volume of 250 μl per well was as follows: 20 mM HEPES, 10 mM MgCl2, 100 mM NaCl, pH 7.4, 30 μM GDP, 1 mg/ml BSA (added fresh), 5 μg membrane protein, 1.5 mg Wheatgerm agglutinin SPA beads (Amersham), 0.45 nM [^35S]GTPγS (Amersham, SJ1308, 1000 Ci/mmol, stabilized solution), and the test compounds (agonists and/or antagonists) at the appropriate concentrations. The samples were incubated at room temperature for 90 min by shaking, after which the SPA beads were sedimented by centrifugation in an Eppendorf 5804 centrifuge at 2700 rpm for 10 min at room temperature. After 60 min the plates were counted in a TopCount (Canberra). Basal [^35S]GTPγS binding was measured in the absence of agonist (NPY). Non-specific binding was measured in the presence of excess (10 μM) unlabelled GTPγS (Sigma). Nonspecific binding never exceeded 10% of basal binding and was thus not subtracted from the experimental data. Antagonists were tested for the inhibition of 0.5 nM NPY-stimulated [^35S]GTPγS binding. Antagonist inhibition curves were analyzed by non-linear regression using GraphPad Prism software (Version 4.0, GraphPad Software Inc., CA, USA).
Antagonistic activity of compounds of the present invention was examined by the Scintillation proximity [35S]GTPγS binding assay as described above (inhibition of 0.5 nM NPY-stimulated [^35S]GTPγS binding). The table below represents percentages of inhibition at a concentration of 10 μM.
Background: Scintillation proximity formats need no separation of bound from free tracer.

Assay [3] concerns normal gastric emptying in mice. Briefly: Normal gastric emptying in mice by Near Infrared FluoRescent (NIRF) imaging. The class given is in vivo, C57/BI6 mice. Particulars: imaging 15 minutes after gavage, vehicle control 70%. The protocol:
The effect of Example 33, (−)-1-(3,5-Dimethyl-isoxazol-4-yl)-3-{4-[2-(S)-2,5-dioxo-4-phenyl-4-propyl-imidazolidin-1-yl)-acetyl]-3-fluoro-phenyl}-urea, on normal gastric emptying in mice is assessed by means of Near Infrared FluoRescent (NIRF) imaging. The NIRF method is described in detail in the publication by Gremlich et al (J. Mol. Imaging, 2004, 3(4), 303-311). In short, C57/BI6 mice are gavaged 0.2 ml test meal (Isosource Standard meal, Novartis Medical Nutrition, Germany) that contains 7.5 g methylcellulose and 5 g Tentagel fluorescent beads (TentaGel MB-NH2, particle size […], capacity 0.2-0.3 mmol/g; Rapp Polymere, Tubingen, Germany) per 100 ml and immediately returned to their cages. 15 minutes after the gavage mice are anaesthetized using isoflurane and prepared for NIRF imaging. Images from the gastric and intestinal areas are taken and the percentage of food emptied from the stomach is calculated as the ratio of fluorescence measured in the intestines and the stomach. Example 33 was dissolved in 1-methyl-2-pyrrolidon, polyethyleenglycol-300 and 5% dextrose solution (w/v) in the following proportion (v/v): 10%, 30% and 60% respectively and injected intraperitoneally 30 minutes before the administration of the test meal. In the vehicle control group (n=6), 70% of the meal was emptied from the stomach.

The text below walks through data of patent US20090099243A1, “ORGANIC COMPOUNDS” (priority 2007, published 2009).

Take `N=C(N)NCCC[C@H](NC(=O)CC1(CC(=O)N2CCN(C3c4ccccc4NC(=O)c4ccccc43)CC2)CCCC1)C(=O)NCCn1c(=O)n(-c2ccccc2)n(-c2ccccc2)c1=O` (stereo partly shown) [BIIE0246]: in assay [1], the “effect on ethanol self-administration” value is given as “dose dependently reduced ethanol self-administration”.

Consider `CCC[C@@]1(c2ccccc2)NC(=O)N(CC(=O)c2ccc(NC(=O)Nc3c(C)noc3C)cc2F)C1=O` [Example 33, (−)-1-(3,5-Dimethyl-isoxazol-4-yl)-3-{4-[2-((S)-2,5-dioxo-4-phenyl-4-propyl-imidazolidin-1-yl)-acetyl]-3-fluoro-phenyl}-urea], for which, in assay [2], the inhibition at 10 µM worked out at 95%. Besides, the results for the “percentage of the meal emptied from the stomach” value in assay [3] (0.3 mg/kg intraperitoneally 30 minutes before test meal) and in assay [3] (1 mg/kg intraperitoneally 30 minutes before test meal) were 80% and 81%, respectively.

With `CCC(CC)C(=O)Nc1ccc(C(=O)CN2C(=O)NC(c3ccccc3)(c3ccccc3)C2=O)c(F)c1` [Example 34, N-{4-[2-(2,5-Dioxo-4,4-diphenyl-imidazolidin-1-yl)-acetyl]-3-fluoro-phenyl}-2-ethyl-butyramide], in assay [2], the inhibition at 10 µM stood at 90%.

For the compound `Cc1cnn(C)c1CC(=O)Nc1ccc(C(=O)CN2C(=O)NC(c3ccccc3)(c3ccccc3)C2=O)cc1` [Example 49, 2-(2,4-Dimethyl-2H-pyrazol-3-yl)-N-{4-[2-(2,5-dioxo-4,4-diphenyl-imidazolidin-1-yl)-acetyl]-phenyl}-acetamide], in assay [2], the inhibition at 10 µM is 64%.

`COc1ccc(F)cc1CC(=O)Nc1ccc(C(=O)CN2C(=O)NC(c3ccccc3)(c3ccccc3)C2=O)cc1` [Example 50, N-{4-[2-(2,5-Dioxo-4,4-diphenyl-imidazolidin-1-yl)acetyl]-phenyl}-2-(5-fluoro-2-methoxy-phenyl)-acetamide]: the inhibition at 10 µM in assay [2] was determined as 80%.
